Where two headings read alike, the source gives them in different places.
Experiments:
AURORA B = AURORA B (Homo sapiens, UniProt Q96GD4); assay: Kinase screen: Aurora B assay; assay type: biochemical; conditions: read-out: Mean Remaining Enzyme Activity (%)
Procedure: Generally, the same procedure was used for all assays. Since the total assay volume was 25.5 microliters, 0.5 microliters of inhibitors at 51× assay concentration were added to the plates before any other addition.
The basic procedure was to add 0.5 microliters inhibitor/control in DMSO to plate. Fifteen microliters of enzyme/substrate/buffer mix were added and incubated for 5 min. Ten microliters MgATP at the relevant concentration were added and incubated for 30 min. The assay was stopped by adding 5 microliters of 3% orthophosphoric acid. The assay was transferred to a p81 filter plate and read in a scintillation counter of 30 sec/well. Note that this assay procedure was not followed for MKK1, which instead involved a two-step assay, and PKC alpha, which required the addition of lipid vesicles.
Aurora B assay: Aurora B (5-20 mU diluted in 50 mM Tris pH 7.5, 0.1 mM EGTA, 0.1% b-mercaptoethanol, 1 mg/ml BSA) was assayed against a substrate peptide ([…]) (SEQ ID NO: 26) in a final volume of […] containing 50 mM Tris pH 7.5, 0.05% b-mercaptoethanol, 300 μM substrate peptide, 10 mM magnesium acetate and 0.02 mM [33P-g-ATP] (50-1000 cpm/pmole) and incubated for 30 min at room temperature. Assays were stopped by addition of 5 μl of 0.5 M (3%) orthophosphoric acid and then harvested onto P81 Unifilter plates with a wash buffer of 50 mM orthophosphoric acid.

CDK2/cyclin A complex = biological target: T1, CDK2/cyclin A complex (Homo sapiens, UniProt P24941); assay: CDK2/cyclin A kinase assay (as for CDK7); assay type: biochemical; conditions: for remaining activity at 0.1 µM: 100 nM, mean of three (standard deviation), read-out: CDK2 % remaining kinase activity after incubation with 100 nM of compound; for IC50: Table 7, mean of three experiments, read-out: CDK2 kinase inhibition in vitro (IC50)
T1 construct: purchased Proqinase GmbH, Germany
Summary of the method: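 Run as the CDK7 protocol with 50 ng CDK2/cyclin A or 100 ng CDK9/cyclin T; compound 30 min at 30 °C, then 2 μM ATP final for 20 min at 30 °C. ATP depletion by luciferase luminescence (PKLight), triplicate, normalised to no-enzyme and enzyme controls.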

[1] = biological target: T2, CDK7 complex (CDK7, Cyclin H, MAT1) (Homo sapiens, UniProt P50613); assay: CDK7/CycH/MAT1 trimeric complex kinase assay (PKLight luciferase); assay type: biochemical; conditions: 100 nM; mean of three (standard deviation); read-out: CDK7 % remaining kinase activity after incubation with 100 nM of compound
T2 construct: purchased Proqinase GmbH, Germany
Summary of the method: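 Compound was preincubated with the kinase for 30 min at 30 °C; the reaction then ran for 20 min at 30 °C with 2 μM ATP final. Remaining ATP was measured by PKLight luciferase luminescence at 560 nm. Values were corrected against the no-enzyme control and expressed relative to enzyme-only activity (100%), in triplicate.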

MCF-7 tumors = assay: MCF-7 tumor growth in nude mice, BS-194 subcutaneous; assay type: in vivo, Balb/c nude mice; conditions: subcutaneous twice daily, 14 days
Procedure: In all, 32 female 8- to 10-week Balb/c nude mice (Harlan UK) were randomly divided into three groups. The mice received 0.72 mg 60-day release E2 pellets (Innovative Research of America, USA), subcutaneously implanted in one flank. MCF7 cells, were trypsinized and 5×10^6 cells in 0.1 ml of PBS were subcutaneously injected into the other flank of each mouse and tumor volumes were measured every 2-3 days, according to the formula (tumor width squared×tumor length)/2. Animal weight was also recorded throughout the course of the study. The animals were injected subcutaneously with BS-194, prepared in 10% DMSO, 50 mM HCl, 5% Tween 20, and 85% Saline, twice daily for 14 days, at which point the animals were sacrificed. The xenograft experiments were conducted after appropriate ethical approval and licensing was obtained in accordance with the UK ‘Guidance on the operation of animals (Scientific Procedure) Act 1986 (HMSO, London, UK, 1990).

CCRF-CEM = assay: cells; conditions: Homo sapiens
SN12C = conditions: for Mean Optical Densities / Percent Growth: SN12C
[2] = 786-0, log10 concentration −4.0
[3] = 786-0, log10 concentration −5.0
[4] = 786-0, log10 concentration −6.0
[5] = 786-0, log10 concentration −7.0
[6] = 786-0, log10 concentration −8.0
[7] = BT-549, log10 concentration −4.0
[8] = BT-549, log10 concentration −5.0
[9] = BT-549, log10 concentration −6.0
[10] = BT-549, log10 concentration −7.0
[11] = BT-549, log10 concentration −8.0

T2 sequence (P50613 whole entry): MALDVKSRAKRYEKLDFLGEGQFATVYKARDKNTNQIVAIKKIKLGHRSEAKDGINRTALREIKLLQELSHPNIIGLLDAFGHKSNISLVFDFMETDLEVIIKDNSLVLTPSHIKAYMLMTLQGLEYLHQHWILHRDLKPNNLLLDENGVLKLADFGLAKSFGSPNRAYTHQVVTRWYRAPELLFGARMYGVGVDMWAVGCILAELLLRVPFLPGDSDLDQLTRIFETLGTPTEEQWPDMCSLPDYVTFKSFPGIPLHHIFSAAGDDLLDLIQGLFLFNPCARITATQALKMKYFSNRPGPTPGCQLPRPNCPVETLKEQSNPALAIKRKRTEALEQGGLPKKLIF
T2 sequence (P51946 whole entry partner): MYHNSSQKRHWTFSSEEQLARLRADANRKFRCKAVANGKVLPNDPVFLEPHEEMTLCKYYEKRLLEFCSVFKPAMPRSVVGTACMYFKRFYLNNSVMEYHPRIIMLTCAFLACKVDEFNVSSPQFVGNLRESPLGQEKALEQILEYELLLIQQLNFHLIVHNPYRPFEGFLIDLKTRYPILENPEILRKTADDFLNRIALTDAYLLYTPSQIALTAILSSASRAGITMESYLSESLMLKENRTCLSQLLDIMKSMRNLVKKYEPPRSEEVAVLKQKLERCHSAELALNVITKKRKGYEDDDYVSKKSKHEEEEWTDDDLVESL
T2 sequence (P51948 whole entry partner): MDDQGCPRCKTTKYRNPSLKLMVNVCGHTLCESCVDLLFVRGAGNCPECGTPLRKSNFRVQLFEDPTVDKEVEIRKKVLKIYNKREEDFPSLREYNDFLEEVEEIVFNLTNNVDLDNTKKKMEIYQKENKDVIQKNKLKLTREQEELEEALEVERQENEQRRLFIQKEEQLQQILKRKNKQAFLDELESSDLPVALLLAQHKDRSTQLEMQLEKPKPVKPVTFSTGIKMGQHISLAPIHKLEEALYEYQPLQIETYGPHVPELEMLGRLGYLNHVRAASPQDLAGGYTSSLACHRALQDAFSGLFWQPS
Chain of AURORA B (Q96GD4 whole entry): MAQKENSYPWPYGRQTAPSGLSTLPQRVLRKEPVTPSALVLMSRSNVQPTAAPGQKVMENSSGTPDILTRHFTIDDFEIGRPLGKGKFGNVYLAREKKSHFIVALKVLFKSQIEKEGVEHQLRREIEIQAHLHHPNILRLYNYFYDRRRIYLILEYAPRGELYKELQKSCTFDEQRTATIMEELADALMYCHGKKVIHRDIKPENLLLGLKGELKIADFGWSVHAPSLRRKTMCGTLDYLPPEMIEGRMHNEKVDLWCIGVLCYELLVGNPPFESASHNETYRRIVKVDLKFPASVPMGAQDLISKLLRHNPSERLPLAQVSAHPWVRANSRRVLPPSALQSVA

CC(C)c1cnn2c(NCc3ccccc3)cc(NCCCCCCCN)nc12 [BS-181]
remaining activity at 10 µM (AURORA B): 95%

C=C[C@H](CO)Nc1cc(NCc2ccccc2)n2ncc(C(C)C)c2n1 [ICEC0065]
remaining activity at 0.1 µM (CDK2/cyclin A complex): 95%
IC50 (CDK2/cyclin A complex): > 1000 nM
remaining activity at 0.1 µM [1]: 80%

CC[C@H](CO)Nc1cc(NCc2ccccc2)n2ncc(C(C)C)c2n1 [ICEC0067]
remaining activity at 0.1 µM (CDK2/cyclin A complex): 100%
IC50 (CDK2/cyclin A complex): > 1000 nM
remaining activity at 0.1 µM [1]: 49%

CC(C)c1cnn2c(NCc3ccccc3)cc(N[C@@H](CO)[C@H](O)CO)nc12 [ICEC0318, (3S)-3-(7-(Benzylamino)-3-isopropylpyrazolo[1,5-a]pyrimidin-5-ylamino)butane-1,2,4-triol]
TGI (786-0; 786-0 (Renal Cancer)): 8.99E−7
Mean Optical Densities (786-0; [2]): 0.491
Percent Growth (786-0; [2]): −21%
Mean Optical Densities (786-0; [3]): 0.598
Percent Growth (786-0; [3]): −4%
Mean Optical Densities (786-0; [4]): 0.592
Percent Growth (786-0; [4]): −5%
Mean Optical Densities (786-0; [5]): 1.769
Percent Growth (786-0; [5]): 98%
Mean Optical Densities (786-0; [6]): 1.824
Percent Growth (786-0; [6]): 103%
GI50 (786-0; Homo sapiens, 786-0): 293 nM
CC50 (786-0; Homo sapiens, 786-0, read-out: LC50): > 100000 nM
TGI (BT-549; BT-549 (Breast Cancer)): 8.82E−7
Mean Optical Densities (BT-549; [7]): 0.803
Percent Growth (BT-549; [7]): −10%
Mean Optical Densities (BT-549; [8]): 0.805
Percent Growth (BT-549; [8]): −9%
Mean Optical Densities (BT-549; [9]): 0.843
Percent Growth (BT-549; [9]): −5%
Mean Optical Densities (BT-549; [10]): 1.769
Percent Growth (BT-549; [10]): 88%
Mean Optical Densities (BT-549; [11]): 1.968
Percent Growth (BT-549; [11]): 108%
Change in animal weight (MCF-7 tumors): nearly constant
GI50 (CCRF-CEM): 342 nM
TGI (SN12C; SN12C (Renal Cancer)): >1.00E−4
Mean Optical Densities (SN12C; log10 concentration −4.0): 0.531
Percent Growth (SN12C; log10 concentration −4.0): 11%
Mean Optical Densities (SN12C; log10 concentration −5.0): 0.578
Percent Growth (SN12C; log10 concentration −5.0): 14%
Mean Optical Densities (SN12C; log10 concentration −6.0): 0.620
Percent Growth (SN12C; log10 concentration −6.0): 18%
Mean Optical Densities (SN12C; log10 concentration −7.0): 1.515
Percent Growth (SN12C; log10 concentration −7.0): 84%
Mean Optical Densities (SN12C; log10 concentration −8.0): 1.702
Percent Growth (SN12C; log10 concentration −8.0): 98%
